# From publication PMC7053805 (Toxicology in vitro : an international journal published in …, 2019)
# Read-outs that look alike come from different tables or passages of the source.
# Assays:
# [1] = Chip-to-human extrapolation; details: for predicted renal clearance/GFR ratio from the chip: Chip+Model, ETS=0
# [2] = test system: Primary human renal proximal tubule epithelial cells (RPTECs); details: for total amount of cadmium assumed accumulated in RPTECs: estimated from measured uptake
# [3] = smelter workers; ref Ellis et al. (1981); cited from earlier work
# [4] = cited from earlier work
# [5] = Rapid equilibrium dialysis; details: for protein binding in the culture media: serum-supplemented media, rapid equilibrium dialysis
# [6] = serum
# [7] = human, indicated by in vivo renal clearance data; ref Contrepois et al., 1985; cited from earlier work
# [8] = in vitro
# [9] = in vitro; details: human
# [10] = human; cited from earlier work
# [11] = test system: canine renal tubule cells; details: ref MacKay et al., 1998, cited from earlier work
# [12] = effluent compared against stock solutions
# [13] = kidney tubule chip, adjusted for non-specific binding, both concentrations
compound,measurement,setting,value
"[Cl][Cd][Cl] [Cadmium, cadmium chloride]",predicted renal clearance/GFR ratio from the chip,[1]; cadmium 0.05 μM (free 0.0145 μM),0.14±0.05
same,predicted renal clearance/GFR ratio from the chip,[1]; cadmium 0.5 μM (free 0.209 μM),0.39±0.17
same,back-calculated Cu/Cf in the chip,"[1]; from in vivo modeled CLR/GFR ratio 0.26 (cadmium, lower concentration)",68%
same,back-calculated Cu/Cf in the chip,"[1]; from in vivo modeled CLR/GFR ratio 0.29 (cadmium, higher concentration)",71%
same,total amount of cadmium assumed accumulated in RPTECs,[2]; after 22 days at 0.05 μM,3.2 µg/g
same,total amount of cadmium assumed accumulated in RPTECs,[2]; after 22 days at 0.5 μM,16.5 µg/g
same,uptake/reabsorption within the kidney tubule chip,[2]; [12],uptake
same,reabsorption (loss) from adjusted Cout/Cin,[2]; [13],24-43%
same,concentrations in human kidney,[3],up to 400 μg/g
same,geometric blood level,"[4]; general population (≥1 year of age) in the USA, ref Agency for Toxic Substances and Disease Registry",~ 0.002 μM
same,Cmax,"[4]; general population, Nigeria, ref Alli, 2015",~100 nM
same,Cmax,"[4]; human occupational, Nigeria, ref Alli, 2015",~1000 nM
same,fraction protein-bound in the culture media,[5]; binding to serum proteins in culture media,up to 71%
"N.N.[Cl][Pt][Cl] [Cisplatin, cisplatin]",recovery from effluent samples,"[2]; cell-seeded chip, at equilibrium",~100%
same,uptake/reabsorption within the kidney tubule chip,[2]; [12],little uptake
same,Cmax,"[4]; human, reported range, ref Verschraagen et al., 2003",1400 to 13900 nM
"CN1CC(=O)NC1=N [Creatinine, creatinine]",reabsorption (loss) from adjusted Cout/Cin,[2]; human,0-5%
same,fraction unbound,[5],0.934 ± 0.06
same,protein binding in the culture media,[5],minimal protein binding
"CNC(C)C1CCC(N)C(OC2C(N)CC(N)C(OC3OCC(C)(O)C(NC)C3O)C2O)O1 (stereo not drawn) [Gentamicin, gentamicin]",protein binding in the culture media,[6],minimal protein binding
same,uptake/reabsorption within the kidney tubule chip,[2],little uptake
same,reabsorption (loss) from adjusted Cout/Cin,[2]; human,0-5%
same,net uptake by the RPTECs,"[2]; tissue chip, on average, 200 and 600 μM",< 0.5%
same,re-absorption in vivo,[7],around 20%
same,fraction unbound,[8]; Free fraction in cell culture media,0.897 ± 0.005
same,recovery,[9],~100%
same,Cmax,"[4]; human, in vivo",~50000 nM
same,serum concentrations,[4]; in vivo,5.3 ± 1.3 µg/mL
same,serum protein binding,[10],no serum protein binding
"O=C(O)C(F)(F)C(F)(F)C(F)(F)C(F)(F)C(F)(F)C(F)(F)C(F)(F)F [PFOA, perfluorooctanoic acid]",uptake/reabsorption within the kidney tubule chip,[2]; [12],uptake
same,reabsorption (loss) from adjusted Cout/Cin,[2]; [13],3-13%
same,fraction unbound,[8],0.986 ± 0.149
same,blood levels,"[4]; occupationally exposed subjects, ref ATSDR, 2018",≤ 24.2 µM
same,protein binding in the culture media,[5],minimal protein binding
inulin,recovery in luminal effluent,[11]; bioreactor with confluent cells,≥ 98.9%
same,recovery in luminal effluent,[11]; blank devices,≤ 7.4%
